What was measured:
[1] = target: Bromodomain-containing protein 9 (Homo sapiens, UniProt Q9H8M2); test: Inhibition of human BRD9 by BROMOscan assay
[2] = target: Transcription initiation factor TFIID subunit 1 (Homo sapiens, UniProt P21675); test: Inhibition of human TAF1 by BROMOscan assay
[3] = target: Nucleosome-remodeling factor subunit BPTF (Homo sapiens, UniProt Q12830); test: Inhibition of human BPTF by BROMOscan assay
[4] = target: T1, Bromodomain-containing protein 2 (Homo sapiens, UniProt P25440); test: Displacement of biotinylated tetra-acetylated histone H4 from His6-tagged BRD2 (1 to 473 aa) (unknown origin) after 1 hr by TR-FRET assay
T1 sequence (P25440 whole entry, the tested form may be a part): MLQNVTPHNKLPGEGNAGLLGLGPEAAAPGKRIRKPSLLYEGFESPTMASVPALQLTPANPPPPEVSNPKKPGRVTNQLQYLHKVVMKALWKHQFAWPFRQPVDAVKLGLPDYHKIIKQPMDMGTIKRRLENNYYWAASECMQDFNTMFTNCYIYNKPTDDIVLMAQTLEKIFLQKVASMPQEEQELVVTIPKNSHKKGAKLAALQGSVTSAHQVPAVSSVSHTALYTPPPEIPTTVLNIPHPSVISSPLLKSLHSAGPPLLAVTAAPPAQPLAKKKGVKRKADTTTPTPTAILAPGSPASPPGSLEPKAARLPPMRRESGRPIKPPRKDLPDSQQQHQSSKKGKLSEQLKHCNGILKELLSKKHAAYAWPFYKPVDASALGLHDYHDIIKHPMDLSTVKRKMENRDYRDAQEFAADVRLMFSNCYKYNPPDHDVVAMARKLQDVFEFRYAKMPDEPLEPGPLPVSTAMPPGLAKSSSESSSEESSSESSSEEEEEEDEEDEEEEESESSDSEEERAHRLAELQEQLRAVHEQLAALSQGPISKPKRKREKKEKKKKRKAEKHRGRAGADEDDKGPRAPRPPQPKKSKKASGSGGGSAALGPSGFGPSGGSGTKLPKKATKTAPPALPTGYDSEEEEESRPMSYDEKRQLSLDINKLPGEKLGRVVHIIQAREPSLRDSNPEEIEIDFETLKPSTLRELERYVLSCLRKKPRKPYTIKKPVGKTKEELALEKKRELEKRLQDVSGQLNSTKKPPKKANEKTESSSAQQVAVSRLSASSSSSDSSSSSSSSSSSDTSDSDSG

[5] = Oral bioavailability in Balb/c mouse at 3 mg/kg; type: ADME, organism-based; conditions: in vivo
[6] = target: ATPase family AAA domain-containing protein 2 (Homo sapiens, UniProt Q6PL18); test: Inhibition of human ATAD2 by BROMOscan assay
Protein polybromo-1 [7] = target: T2, Protein polybromo-1 (Homo sapiens, UniProt Q86U86); test: Inhibition of human PBRM1 bromodomain 1 by BROMOscan assay
T2 sequence (Q86U86 whole entry): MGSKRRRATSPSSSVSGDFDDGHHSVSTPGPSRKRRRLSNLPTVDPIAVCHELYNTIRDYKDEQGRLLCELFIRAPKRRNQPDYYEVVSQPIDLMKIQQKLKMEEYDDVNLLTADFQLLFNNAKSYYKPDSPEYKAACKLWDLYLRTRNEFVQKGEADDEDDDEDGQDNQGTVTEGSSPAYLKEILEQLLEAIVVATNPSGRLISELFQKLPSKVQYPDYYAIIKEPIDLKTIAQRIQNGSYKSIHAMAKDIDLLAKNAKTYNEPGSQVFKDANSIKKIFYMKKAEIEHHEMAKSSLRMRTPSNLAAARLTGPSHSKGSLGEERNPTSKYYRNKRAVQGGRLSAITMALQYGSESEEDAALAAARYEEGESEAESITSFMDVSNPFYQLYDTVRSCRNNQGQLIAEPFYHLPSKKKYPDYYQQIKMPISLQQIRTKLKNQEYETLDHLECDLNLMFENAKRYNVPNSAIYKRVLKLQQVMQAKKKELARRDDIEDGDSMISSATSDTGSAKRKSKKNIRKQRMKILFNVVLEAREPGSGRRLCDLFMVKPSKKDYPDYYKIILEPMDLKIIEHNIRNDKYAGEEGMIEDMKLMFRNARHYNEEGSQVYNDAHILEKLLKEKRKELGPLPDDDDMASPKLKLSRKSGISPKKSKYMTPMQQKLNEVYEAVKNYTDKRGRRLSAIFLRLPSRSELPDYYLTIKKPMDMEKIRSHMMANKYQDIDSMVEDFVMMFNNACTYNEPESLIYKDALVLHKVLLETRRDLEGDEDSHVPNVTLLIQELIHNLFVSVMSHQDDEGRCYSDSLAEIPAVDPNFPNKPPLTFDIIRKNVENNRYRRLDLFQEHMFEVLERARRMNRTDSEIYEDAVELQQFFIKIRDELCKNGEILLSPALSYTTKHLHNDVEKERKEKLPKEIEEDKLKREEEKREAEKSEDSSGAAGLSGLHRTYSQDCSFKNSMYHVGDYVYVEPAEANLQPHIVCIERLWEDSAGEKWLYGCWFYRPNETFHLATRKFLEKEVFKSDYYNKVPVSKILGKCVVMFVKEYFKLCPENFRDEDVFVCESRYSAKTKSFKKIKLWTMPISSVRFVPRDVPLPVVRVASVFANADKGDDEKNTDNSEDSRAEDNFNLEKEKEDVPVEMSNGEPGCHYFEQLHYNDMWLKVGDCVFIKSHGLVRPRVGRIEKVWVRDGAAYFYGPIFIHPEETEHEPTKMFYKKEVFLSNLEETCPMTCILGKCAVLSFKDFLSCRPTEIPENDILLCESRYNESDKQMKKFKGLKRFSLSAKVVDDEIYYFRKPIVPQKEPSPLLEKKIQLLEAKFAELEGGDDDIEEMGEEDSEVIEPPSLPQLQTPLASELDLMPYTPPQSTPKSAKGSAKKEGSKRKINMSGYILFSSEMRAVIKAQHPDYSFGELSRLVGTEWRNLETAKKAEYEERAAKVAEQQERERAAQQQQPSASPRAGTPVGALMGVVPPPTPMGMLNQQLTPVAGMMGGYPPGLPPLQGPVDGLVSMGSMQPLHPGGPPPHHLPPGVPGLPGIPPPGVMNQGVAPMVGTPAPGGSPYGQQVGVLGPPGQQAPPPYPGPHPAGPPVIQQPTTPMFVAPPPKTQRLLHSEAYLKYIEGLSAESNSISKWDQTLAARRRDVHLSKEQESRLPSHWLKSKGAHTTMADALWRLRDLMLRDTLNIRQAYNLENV

[8] = Clearance in Cynomolgus monkey hepatocytes assessed per gram of tissue at 1 uM by LC-MS/MS analysis; type: ADME, cell-based, Macaca fascicularis, Hepatocyte
Blood = test: Inhibition of LPS-induced IL6 production in human whole blood after 24 hrs by immunoassay; type: functional, tissue-based
[9] = AUC (0 to t) in Balb/c mouse at 3 mg/kg, po; type: ADME, organism-based; set-up: dose 3 mg/kg, route oral; conditions: plasma
[10] = target: Bromodomain adjacent to zinc finger domain protein 2B (Homo sapiens, UniProt Q9UIF8); test: Inhibition of BAZ2B (unknown origin) by BROMOscan assay
[11] = target: Bromodomain-containing protein 1 (Homo sapiens, UniProt O95696); test: Inhibition of human BRD1 by BROMOscan assay
[12] = target: T3, Transcription intermediary factor 1-alpha (Homo sapiens, UniProt O15164); test: Inhibition of human TIF1alpha PHD/bromodomain by BROMOscan assay
T3 sequence (O15164 whole entry): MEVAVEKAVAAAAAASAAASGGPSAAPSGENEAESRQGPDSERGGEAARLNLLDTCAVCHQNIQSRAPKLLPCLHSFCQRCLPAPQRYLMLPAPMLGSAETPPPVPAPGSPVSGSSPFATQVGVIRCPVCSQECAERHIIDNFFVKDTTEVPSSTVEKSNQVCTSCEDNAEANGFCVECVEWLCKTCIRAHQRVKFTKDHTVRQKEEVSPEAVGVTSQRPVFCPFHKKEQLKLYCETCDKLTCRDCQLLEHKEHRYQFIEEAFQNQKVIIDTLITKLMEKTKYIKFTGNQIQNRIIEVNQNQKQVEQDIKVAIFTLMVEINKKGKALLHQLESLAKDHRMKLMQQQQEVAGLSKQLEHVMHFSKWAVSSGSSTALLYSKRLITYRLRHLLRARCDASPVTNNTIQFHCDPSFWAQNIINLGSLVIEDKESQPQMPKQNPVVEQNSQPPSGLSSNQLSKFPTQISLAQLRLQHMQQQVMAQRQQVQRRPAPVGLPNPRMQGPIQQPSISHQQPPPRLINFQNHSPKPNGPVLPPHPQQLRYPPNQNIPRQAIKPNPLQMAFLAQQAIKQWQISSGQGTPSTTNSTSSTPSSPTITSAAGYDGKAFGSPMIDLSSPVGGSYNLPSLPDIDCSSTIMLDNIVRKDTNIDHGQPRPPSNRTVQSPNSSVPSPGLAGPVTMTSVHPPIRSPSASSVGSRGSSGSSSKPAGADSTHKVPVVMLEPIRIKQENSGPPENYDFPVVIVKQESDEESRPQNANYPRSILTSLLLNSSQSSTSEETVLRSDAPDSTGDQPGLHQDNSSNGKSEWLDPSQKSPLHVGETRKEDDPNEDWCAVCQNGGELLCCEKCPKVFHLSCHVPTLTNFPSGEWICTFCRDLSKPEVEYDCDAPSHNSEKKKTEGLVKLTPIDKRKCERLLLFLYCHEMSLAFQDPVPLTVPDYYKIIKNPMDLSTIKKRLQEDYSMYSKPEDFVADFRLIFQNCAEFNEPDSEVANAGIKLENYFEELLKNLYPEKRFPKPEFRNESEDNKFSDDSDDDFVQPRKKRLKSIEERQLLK

[13] = target: Bromodomain and WD repeat-containing protein 1 (Homo sapiens, UniProt Q9NSI6); test: Inhibition of human WDR9 bromodomain 2 by BROMOscan assay
[14] = target: T1, Bromodomain-containing protein 2; test: Inhibition of human BRD2 bromodomain 1 by BROMOscan assay
[15] = target: SWI/SNF-related matrix-associated actin-dependent regulator of chromatin subfamily A member 2 (Homo sapiens, UniProt P51531); test: Inhibition of human SMARCA2 by BROMOscan assay
Cytochrome P450 3A4 = Cytochrome P450 3A4 (Homo sapiens, UniProt P08684); test: Time-dependent inhibition of human recombinant CYP3A4 expressed in Escherichia coli bactosomes using diethoxyfluorescein as substrate by fluorescence assay; type: ADME; conditions: recombinant enzyme
[16] = target: Bromodomain adjacent to zinc finger domain protein 2A (Homo sapiens, UniProt Q9UIF9); test: Inhibition of human BAZ2A by BROMOscan assay
[17] = target: T4, Bromodomain testis-specific protein (Homo sapiens, UniProt Q58F21); test: Inhibition of human BRDT bromodomain 2 by BROMOscan assay
[18] = Fraction unbound in mouse blood by rapid equilibrium dialysis method; type: ADME, tissue-based
[19] = Oral bioavailability in beagle dog at 3 mg/kg; type: ADME, organism-based, Canis lupus familiaris; conditions: in vivo
Peregrin = Peregrin (Homo sapiens, UniProt P55201); test: Inhibition of human BRPF1 by BROMOscan assay
[20] = target: Histone acetyltransferase KAT2B (Homo sapiens, UniProt Q92831); test: Inhibition of human PCAF by BROMOscan assay
Sequence of Histone acetyltransferase KAT2B (Q92831 whole entry, the tested form may be a part): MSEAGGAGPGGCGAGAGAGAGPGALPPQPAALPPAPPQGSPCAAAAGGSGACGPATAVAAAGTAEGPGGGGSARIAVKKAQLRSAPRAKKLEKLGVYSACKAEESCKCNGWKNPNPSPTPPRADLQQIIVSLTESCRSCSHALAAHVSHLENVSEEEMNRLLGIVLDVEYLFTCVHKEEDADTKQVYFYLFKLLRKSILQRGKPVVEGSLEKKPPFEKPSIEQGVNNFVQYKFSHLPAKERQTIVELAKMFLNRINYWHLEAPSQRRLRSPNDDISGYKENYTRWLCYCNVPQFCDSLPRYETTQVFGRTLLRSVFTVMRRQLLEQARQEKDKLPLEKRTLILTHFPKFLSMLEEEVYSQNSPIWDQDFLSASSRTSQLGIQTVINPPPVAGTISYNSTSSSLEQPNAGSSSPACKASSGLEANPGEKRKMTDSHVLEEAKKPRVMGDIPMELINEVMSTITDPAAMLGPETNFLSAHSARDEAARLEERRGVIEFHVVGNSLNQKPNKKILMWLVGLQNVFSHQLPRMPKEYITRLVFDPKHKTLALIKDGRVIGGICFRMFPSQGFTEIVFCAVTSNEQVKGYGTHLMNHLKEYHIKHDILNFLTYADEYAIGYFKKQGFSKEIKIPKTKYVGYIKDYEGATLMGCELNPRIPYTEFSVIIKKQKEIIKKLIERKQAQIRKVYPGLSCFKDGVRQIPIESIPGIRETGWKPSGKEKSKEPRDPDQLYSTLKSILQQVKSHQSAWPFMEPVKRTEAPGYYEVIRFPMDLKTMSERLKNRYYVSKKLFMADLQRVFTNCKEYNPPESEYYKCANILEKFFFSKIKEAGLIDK

[21] = Volume of distribution at steady state in beagle dog at 1 mg/kg, iv as infusion and 3 mg/kg, po; type: ADME, organism-based, Canis lupus familiaris; conditions: in vivo, read-out: Vdss
Cytochrome P450 1A2 = Cytochrome P450 1A2 (Homo sapiens, UniProt P05177); test: Inhibition of CYP1A2 (unknown origin) expressed in Escherichia coli bactosomes using ethoxyresorufin as substrate after 10 mins by fluorescence assay; type: ADME
[22] = Volume of distribution at steady state in rat at 1 mg/kg, iv as infusion and 3 mg/kg, po; type: ADME, organism-based; conditions: in vivo, read-out: Vdss
Protein polybromo-1 [23] = target: T2, Protein polybromo-1; test: Inhibition of human PBRM1 bromodomain 5 by BROMOscan assay
[24] = target: Transcription initiation factor TFIID subunit 1-like (Homo sapiens, UniProt Q8IZX4); test: Inhibition of human TAF1L by BROMOscan assay
[25] = Terminal half life in beagle dog at 1 mg/kg, iv as infusion; type: ADME, organism-based, Canis lupus familiaris; set-up: dose 1 mg/kg, route intravenous; conditions: in vivo, read-out: beta t1/2 (converted)
[26] = Terminal half life in Cynomolgus monkey at 1 mg/kg, iv as infusion; type: ADME, organism-based, Macaca fascicularis; set-up: dose 1 mg/kg, route intravenous; conditions: in vivo, read-out: beta t1/2 (converted)
[27] = target: T1, Bromodomain-containing protein 2; test: Inhibition of human BRD2 bromodomain 2 by BROMOscan assay
[28] = Blood clearance in Cynomolgus monkey at 1 mg/kg, iv as infusion and 3 mg/kg, po; type: ADME, organism-based, Macaca fascicularis; conditions: whole blood
Hepatocyte = test: Clearance in human hepatocytes assessed per gram of tissue at 1 uM by LC-MS/MS analysis; type: ADME, cell-based
[29] = target: T4, Bromodomain testis-specific protein; test: Inhibition of BRDT (unknown origin) by TR-FRET assay
[30] = target: Histone acetyltransferase p300 (Homo sapiens, UniProt Q09472); test: Inhibition of human EP300 by BROMOscan assay
HepG2 = test: Upregulation of ApoA1 in human HepG2 cells after 16 hrs by luciferase reporter assay relative to control; type: functional
[31] = AUC (0 to t) in Cynomolgus monkey at 2 mg/kg, po; type: ADME, organism-based, Macaca fascicularis; set-up: dose 2 mg/kg, route oral; conditions: plasma
[32] = target: T5, Bromodomain-containing protein 3 (Homo sapiens, UniProt Q15059); test: Inhibition of human BRD3 bromodomain 2 by BROMOscan assay
T5 sequence (Q15059 whole entry): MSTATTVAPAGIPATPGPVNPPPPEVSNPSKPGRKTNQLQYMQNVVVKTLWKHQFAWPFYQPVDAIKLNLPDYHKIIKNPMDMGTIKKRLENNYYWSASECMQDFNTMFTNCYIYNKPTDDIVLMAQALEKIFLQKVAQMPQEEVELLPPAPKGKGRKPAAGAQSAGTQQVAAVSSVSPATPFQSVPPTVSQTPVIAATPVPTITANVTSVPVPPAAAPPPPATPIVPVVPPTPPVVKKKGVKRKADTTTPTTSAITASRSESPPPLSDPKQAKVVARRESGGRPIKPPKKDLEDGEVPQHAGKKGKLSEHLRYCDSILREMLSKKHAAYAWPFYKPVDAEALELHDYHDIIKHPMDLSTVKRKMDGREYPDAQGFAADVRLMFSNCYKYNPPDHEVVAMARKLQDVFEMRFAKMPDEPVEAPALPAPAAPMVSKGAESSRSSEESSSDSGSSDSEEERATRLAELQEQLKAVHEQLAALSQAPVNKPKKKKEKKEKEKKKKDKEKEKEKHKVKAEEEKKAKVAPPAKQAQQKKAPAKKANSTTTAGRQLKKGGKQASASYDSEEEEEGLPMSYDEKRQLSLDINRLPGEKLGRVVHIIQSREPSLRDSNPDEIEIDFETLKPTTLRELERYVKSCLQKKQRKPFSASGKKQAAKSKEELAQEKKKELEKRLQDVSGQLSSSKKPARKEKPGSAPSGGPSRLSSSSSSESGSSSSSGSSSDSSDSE

[33] = target: T3, Transcription intermediary factor 1-alpha; test: Inhibition of human TIF1alpha bromodomain by BROMOscan assay
[34] = Fraction unbound in rat blood by rapid equilibrium dialysis method; type: ADME, tissue-based
[35] = target: T4, Bromodomain testis-specific protein; test: Inhibition of human BRDT bromodomain 1 by BROMOscan assay
[36] = target: T5, Bromodomain-containing protein 3; test: Inhibition of human BRD3 bromodomain 1 by BROMOscan assay
[37] = target: T5, Bromodomain-containing protein 3; test: Binding affinity to His6-tagged BRD3 (1 to 475 aa) (unknown origin) by SPR method
Cytochrome P450 2D6 = Cytochrome P450 2D6 (Homo sapiens, UniProt P10635); test: Inhibition of recombinant human CYP2D6 expressed in Escherichia coli bactosomes using 4-methylaminomethyl-7-methoyxycoumarin as substrate after 10 mins by fluorescence assay; type: ADME
[38] = Oral bioavailability in rat at 3 mg/kg; type: ADME, organism-based; conditions: in vivo
[39] = target: T1, Bromodomain-containing protein 2; test: Binding affinity to His6-tagged BRD2 (1 to 473 aa) (unknown origin) by SPR method
[40] = Volume of distribution at steady state in Cynomolgus monkey at 1 mg/kg, iv as infusion and 3 mg/kg, po; type: ADME, organism-based, Macaca fascicularis; conditions: in vivo, read-out: Vdss
[41] = Blood clearance in Balb/c mouse at 10 mg/kg, iv as bolus dose; type: ADME, organism-based; set-up: dose 10 mg/kg, route intravenous; conditions: whole blood
PBMC = test: Inhibition of LPS-induced IL6 production in human PBMC after 18 to 24 hrs by immunoassay; type: functional, cell-based
[42] = Terminal half life in rat at 1 mg/kg, iv as infusion; type: ADME, organism-based; set-up: dose 1 mg/kg, route intravenous; conditions: in vivo, read-out: beta t1/2

SMILES: CC(=O)N1c2ccc(-c3ccc(C(=O)O)cc3)cc2[C@H](Nc2ccc(Cl)cc2)C[C@@H]1C
- IC50 [1]: > 31.6 µM
- IC50 [2]: 31.6 µM
- IC50 [3]: > 31.6 µM
- IC50 [4]: 0.158 µM
- bioavailability [5]: 45%
- IC50 [6]: > 31.6 µM
- IC50 (Protein polybromo-1 [7]): 0.631 µM
- CLH [8]: < 0.85 mL/min/g
- IC50 (Blood): 0.398 µM
- AUC(0-t) [9]: 6030 ng·h/mL
- IC50 [10]: > 31.6 µM
- IC50 [11]: > 20 µM
- IC50 [12]: 15.8 µM
- IC50 [13]: 31.6 µM
- IC50 [14]: > 31.6 µM
- IC50 [15]: > 31.6 µM
- inhibition (INH) (Cytochrome P450 3A4): Active
- IC50 [16]: > 31.6 µM
- IC50 [17]: 31.6 µM
- fraction unbound [18]: 0.013
- bioavailability [19]: 80%
- IC50 (Peregrin): > 0.00398 µM
- IC50 [20]: > 7.94 µM
- Vd [21]: 0.8 L/kg
- IC50 (Cytochrome P450 1A2): > 33 µM
- Vd [22]: 2 L/kg
- IC50 (Protein polybromo-1 [23]): > 31.6 µM
- IC50 [24]: 31.6 µM
- half-life [25]: 1.8 h
- half-life [26]: 2.7 h
- IC50 [27]: 0.00316 µM
- clearance [28]: 3 mL/min/kg
- CLH (Hepatocyte): < 0.85 mL/min/g
- IC50 [29]: 0.0501 µM
- IC50 [30]: 31.6 µM
- pEC170 (HepG2): 8.1
- AUC(0-t) [31]: 11000 ng·h/mL
- IC50 [32]: 0.002 µM
- IC50 [33]: 10 µM
- fraction unbound [34]: 0.009
- IC50 [35]: 31.6 µM
- IC50 [36]: 0.000631 µM
- Kd [37]: 0.02 µM
- IC50 (Cytochrome P450 2D6): > 33 µM
- bioavailability [38]: 28%
- Kd [39]: 0.025 µM
- Vd [40]: 1 L/kg
- clearance [41]: 3.1 mL/min/kg
- IC50 (PBMC): 0.0501 µM
- half-life [42]: > 8 h
